Legend:
[1] = system: cartilage analogs (human nasal septal chondrocytes on microcarriers); assay: De novo proteoglycan synthesis by 35S-sulfate incorporation in cartilage analogs cultured in spinner flasks; assay type: cell-based; conditions: for sulfate incorporation, cell-associated (non-secreted) fraction, compared to controls: Ibuprofen 140 μg/ml; for de novo proteoglycan synthesis compared to the control (FIG. 8): subsequent study with PPS5, 35S label during last 24 hours of culture
Method: A preliminary experiment was conducted to analyze the effect of agents such as growth factors (TGF-β1) and non-steroidal anti-inflammatory drugs (NSAIDS; Ibuprofen). Human chondrocytes from donors undergoing nasal septal defect surgery were isolated by enzymatic digestion. The cells were seeded onto microcarriers at approximately 4×10^3 cells/cm^2, and incubated in spinner flasks at 60 rpm and at 37° C. and 5% CO2 until the cells reach confluency at about 14 days. […] These aggregates are referred to here as “cartilage analogs”.
(§1) Equivalent aliquots of these analogs were transferred to six 25-ml spinner flasks. Aliquots (5 ml) of control medium (no additive), or medium containing human platelet TGF-β1 (10 ng/ml; Sigma Chemical Co., St. Louis, Mo.) or Ibuprofen (140 μg/ml; Sigma) were added to duplicate flasks. TGF-β1 is a growth factor known to stimulate proteoglycan synthesis in chondrocyte cultures and cartilage explant cultures, while Ibuprofen is an anti-inflammatory drug known to inhibit proteoglycan synthesis. […] The cultures were incubated for two days. 24 hours prior to terminating the cultures, 300 μCi of ^35S—Na2SO4 (NEN Life Science Products, Boston, Mass.) was added to each flask to measure incorporation into proteoglycans during the last 24 hours of culture.
Following termination of the cultures, cells were pelleted by centrifugation and proteoglycans were extracted from the supernatant medium and the cell fraction with 4 M guanidine HCl for 24 hours at 4° C. Guanidine HCl extracts were dialyzed extensively against deionized class I water using 6,000 Da cut-off dialysis tubing (The Spectrum Companies, Gardena, Calif.). Post-dialysis volumes were measured and triplicate 100 μl samples were counted in a LS-6500 Liquid Scintillation Counter (Beckman Instruments, Inc., Palo Alto, Calif.) using Cytoscint-ES Cocktail (ICN Research Products, Costa Mesa, Calif.). The total ^35SO4 incorporation was expressed as cpm per 10^6 cells. Another set of dialyzed samples were dried on a Speed-Vac (Savant, Inc., Farmingdale, N.Y.) and was then reconstituted in sample buffer consisting of 1% sodium dodecylsulfate, 30% sucrose and 0.025% brophenol blue. The samples were boiled for 5 min and then loaded on an 0.75% agarose gel in electrophoresis buffer. After electrophoresis, the gel was treated with Entensify (NEN Life Science Products), dried and autoradiographed at −70° C.

[2] = system: cartilage analogs (human nasal septal chondrocytes on microcarriers); assay: Immunoperoxidase staining for proteoglycans in chondrocytes from cartilage analogs; assay type: cell-based; conditions: two days incubation; TGF-β1 10 ng/ml, Ibuprofen 140 μg/ml
Method: A preliminary experiment was conducted to analyze the effect of agents such as growth factors (TGF-β1) and non-steroidal anti-inflammatory drugs (NSAIDS; Ibuprofen). Human chondrocytes from donors undergoing nasal septal defect surgery were isolated by enzymatic digestion. The cells were seeded onto microcarriers at approximately 4×10^3 cells/cm^2, and incubated in spinner flasks at 60 rpm and at 37° C. and 5% CO2 until the cells reach confluency at about 14 days. At this point, the chondrocytes produce extracellular matrix-like products consisting of type II collagen, high-molecular-weight proteoglycans and aggrecan. The constructs also start to form microaggregates. These aggregates are referred to here as “cartilage analogs”.
as §1, with “24 hours prior to terminating the cultures, 300 μCi of ^35S—Na2SO4 (NEN Life Science Products, Boston, Mass.) was added to each flask to measure incorporation into proteoglycans during the last 24 hours of culture.” left out

[3] = preliminary experiment, two days, 35S label during last 24 hours, TGF-β1 10 ng/ml

Compound	sulfate incorporation, cell-associated (non-secreted) fraction, compared to controls [1, 3]	de novo proteoglycan synthesis compared to the control (FIG. 8) [1]	immunostaining for proteoglycans compared to control cells [2]	sulfate incorporation, media-associated (secreted) fraction, compared to controls [1, 3]
CC(C)Cc1ccc(C(C)C(=O)O)cc1 (stereo not shown) [Ibuprofen, reference compound]	decreased the cell-associated sulfate incorporation	decreased proteoglycan synthesis	more faint immunostaining	
TGF-β1: human platelet TGF-β1, a growth factor known to stimulate proteoglycan synthesis in chondrocyte cultures	higher sulfate incorporation	enhanced protoglycan synthesis	More intense immunostaining	higher sulfate incorporation
